The test system of data set [1] is imine reductase purified from GF3587. Nature of the data set: Substrate specificity of imine reductase purified from GF3587 (decrease of NADPH absorbance at 340 nm). Type of data set: biochemical, Streptomyces sp. GF3587. Conditions: for Relative Activity: 2-MPN = 100; for level of activity of reducing the compound, activity of reducing 2-methyl-1-pyrroline taken as 100: relative to 2-MPN = 100. Here is the method:
To assess the substrate specificity of the imine reductase purified from GF3587, the activities of the enzyme towards the compounds listed in Table 4 were compared.
One ml of reaction mixtures having the composition described below were incubated at […]. The reaction mixtures were assayed to determine the decrease in absorbance (340 nm) of NADPH due to the generation of (R)-2-methylpyrrolidine. An imine reductase solution (2.04 U/ml) was added to reaction solutions containing each substrate compound shown in Table 4 to initiate the reaction. The absorbance of each reaction solution was determined at 340 nm after two minutes of incubation.
The relative activity shown in the table is defined as relative activity when the enzymatic activity on […] (2-MPN) is taken as 100.

Data set [2] deals with imine reductase responsible for the reduction of 2-methyl-1-pyrroline (crude enzyme solution). As to the kind of experiment: Coenzyme dependency of 2-methyl-1-pyrroline reduction by crude enzyme solution. To be noted: 10 mM coenzyme, 10 mM 2-methyl-1-pyrroline, pH 7.0, 30° C. Type of data set: biochemical, Streptomyces sp. GF3587. The protocol: (§1) The cells of Streptomyces sp. GF3587 were cultured according to Example 1, and then crushed with glass beads. A crude enzyme solution was prepared by removing intact microbial cells and cell debris by centrifugation. 100 μl of the crude enzyme solution was added to 100 mM phosphate buffer (pH 7.0) containing 10 mM 2-methyl-1-pyrroline and 10 mM NADH or NADPH. During incubation of the mixture at 30° C., absorbance was measured at 340 nm to monitor the decrease of NAD(P)H. The enzymatic activity was determined by this assay.

A short description of data set [3]: Imine-reducing activity of microbial cell extracts of recombinant E. coli JM109. Type of data set: biochemical. To be noted: protein expressed in E. coli. The protocol: as §1
The E. coli JM109 strain that had been transformed with an imine reductase expression plasmid pSUSRIR1 was cultured in an ampicillin-containing liquid LB medium at 30° C. overnight. After adding 0.1 mM IPTG, the cells were further cultured for four hours.
The microbial cells were harvested by centrifugation, and then suspended in 100 mM potassium phosphate buffer (pH 7.0) containing 1 mM DTT. The microbial cells were crushed in Sealed-Type Ultrasonic Cell Disruptor UCD-200™ (Cosmo Bio). After centrifugation, the supernatant was collected as microbial cell extract. […] After adding 0.1 mM IPTG the cells were further cultured for four hours. Using the same method, the microbial cells were also crushed to prepare microbial cell extract.
Each microbial cell extract was assayed for its imine-reducing activity towards 2-methyl-1-pyrroline. […]

Data set [4] is described as follows: Optimal temperature of imine reductase. Type of data set: biochemical, Streptomyces sp. GF3587. Conditions: pH 7.0, 10 to 70° C. tested. Here is the method: The imine reductase purified from GF3587 was tested for its optimal temperature. 1 ml of reaction solution having the composition described below were incubated at 10 to 70° C. to measure the decrease of absorbance (340 nm) of NADPH due to the generation of (R)-2-methylpyrrolidine. After the reaction solutions were pre-incubated at each temperature for five minutes, an imine reductase solution (12.3 U/ml) was added thereto to initiate the reaction. After two minutes, the absorbance of the reaction solutions was measured at 340 nm. The amount of imine reductase that catalyzes the decrease (oxidation) of 1 μmol of NADPH per minute when incubated at 30° C. in the reaction solution having the composition described below is defined as 1 U. The result is shown in FIG. 7.

Data set [5] is described as follows: Optimal pH of imine reductase. Type of data set: biochemical, Streptomyces sp. GF3587. Conditions: 30° C. Here is the method:
Furthermore, the imine reductase purified from GF3587 was tested for its optimal pH. The reaction was started by adding an imine reductase (6.82 U/ml) solution to reaction mixtures having the same composition as shown in (1), except that various types of buffer agents were added. The mixtures were incubated at 30° C. for two minutes. The buffers used in this experiment and their pH are listed below.
100 mM citrate buffer: pH 3 to 6
100 mM sodium acetate buffer: pH 4 to 5.5
100 mM potassium phosphate buffer: pH 6 to 8
100 mM Tris-HCl buffer: pH 7.5 to 9
100 mM glycine-sodium hydroxide buffer: pH 9 to 11
The reaction solutions were assayed to determine the decreases in absorbance (340 nm) of NADPH due to the generation of (R)-2-methylpyrrolidine. […] Furthermore, 80% or more of the maximal activity was retained at pH 6.0 to 7.5.

Entries after “also recorded” stand apart in the source; their conditions may differ.

`C1=NCCCN1` [1,4,5,6-Tetrahydropyrimidine]: in data set [1] (substrate 10 mM), the “Relative Activity” value was determined as 0.

For `CC1=NCCC1` [2-Methyl-1-pyrroline (2-MPN), 2-Methyl-1-pyrroline], the “level of activity of reducing the compound, activity of reducing 2-methyl-1-pyrroline taken as 100” value in data set [1] came to 100%. For the same molecule, in data set [1] (substrate 10 mM), the “enzymatic activity corresponding to relative activity 100” value was determined as 2.04 U/mL and the “Relative Activity” value was 100.

As for `Cc1ccco1` [2-Methylfuran], the “Relative Activity” value in data set [1] (substrate 10 mM) is given as 0.

On to `Cc1ncc[nH]1` [2-Methylimidazole], for which the “Relative Activity” value in data set [1] (substrate 10 mM) was 0.

Consider `Cc1cnccn1` [2-Methylpyrazine], for which, in data set [1] (substrate 10 mM), the “Relative Activity” value came to 0.

As to `Cc1ncccn1` [2-Methylpyrimidine], in data set [1] (substrate 10 mM), the “Relative Activity” value came to 0.

`Cc1nccs1` [2-Methylthiazole]: the “Relative Activity” value in data set [1] (substrate 10 mM) stood at 0.

As to `Cc1cccs1` [2-Methylthiophene], the “Relative Activity” value in data set [1] (substrate 5 mM) came to 0.

Turning to `CC(=NO)c1ccccc1` [Acetophenone oxime], the “Relative Activity” value in data set [1] (substrate 1 mM) worked out at 0.

As to `Nc1nc2c(c(=O)[nH]1)N=C(CNc1ccc(C(=O)N[C@@H](CCC(=O)O)C(=O)O)cc1)CN2` [Dihydrofolic acid], in data set [1], the “level of activity of reducing the compound, activity of reducing 2-methyl-1-pyrroline taken as 100” value was determined as 7.6%. Also, in data set [1] (substrate 0.05 mM), the “Relative Activity” value was 7.6.

With `C/C(=N\c1ccccc1)c1ccccc1` [N-((E/Z)-N-(1-phenylethylidene)aniline], in data set [1], the “level of activity of reducing the compound, activity of reducing 2-methyl-1-pyrroline taken as 100” value is 29%. In addition, the “Relative Activity” value in data set [1] (substrate 25 mM) turned out to be 29.

`C(=NCc1ccccc1)c1ccccc1` [N-Benzylidenebenzylamine]: in data set [1] (substrate 10 mM), the “Relative Activity” value is 30.

On to `NC(=O)C1=CN([C@@H]2O[C@H](COP(=O)(O)OP(=O)(O)OC[C@H]3O[C@@H](n4cnc5c(N)ncnc54)[C@H](O)[C@@H]3O)[C@@H](O)[C@H]2O)C=CC1` [NADH], for which, in data set [2], the “activity with the coenzyme, activity with NADPH taken as 100%” value was 7%.

As for `NC(=O)C1=CN([C@@H]2O[C@H](COP(=O)(O)OP(=O)(O)OC[C@H]3O[C@@H](n4cnc5c(N)ncnc54)[C@H](OP(=O)(O)O)[C@@H]3O)[C@@H](O)[C@H]2O)C=CC1` [NADPH, reduced nicotinamide adenine dinucleotide phosphate], in data set [2], the “activity with the coenzyme, activity with NADPH taken as 100%” value is listed as 100%.

B1: Q1EQE0: putative protein of Streptomyces kanamyceticus, SEQ ID NO: 17, imine reductase homologue (protein, listed as Streptomyces kanamyceticus)
chain: MPDNPSTKGRMMRNQQAEHTPVTVIGLGLMGQALAGAFLGAGHPTTVWNRTAAKAEPLVARGAKSAGSVAEAVAASPLVVVCVSDYDAVHALLDPLDGTALQGRTLVNLTSGTSAQARERAAWADGRGADYLDGAILAGPAAIGTADAVVLLSGPRSAFDPHASALGGLGAGTTYLGADHGLASLYDAAGLVMMWSILNGFLQGAALLGTAGVDATTFAPFITQGIGTVADWLPGYARQIDDGAYPADDAAIDTHLATMEHLIHESEFLGVNAELPRFIKALADRAVADGHGGSGYPALIEQFRTHSGK
For B1, the “imine-reducing activity in words” value in data set [3] was “exhibited the imine-reducing activity; also recorded: had imine-reducing activity”.

B2: imine reductase purified from GF3587: NADPH-dependent imine reductase purified from Streptomyces sp. GF3587, amino acid sequence SEQ ID NO: 6 (protein)
chain: MGDNRTPVTVIGLGLMGQALAAAFLEAGHTTTVWNRSAGKAEQLVSQGAVQAATPADAVAASELVVVCLSTYDNMHDVIGSLGESLRGKVIVNLTSGSSDQGRETAAWAEKQGVEYLDGAIMITPPGIGTETAVLFYAGTQSVFEKYEPALKLLGGGTTYLGTDHGMPALYDVSLLGLMWGTLNSFLHGVAVVETAGVGAQQFLPWAHMWLEAIKMFTADYAAQIDAGDGKFPANDATLETHLAALKHLVHESEALGIDAELPKYSEALMERVISQGHAKNSYAAVLKAFRKPSE
modifications: Streptomyces sp. GF3587
Molecule B2 displayed an optimal temperature in data set [4] of 50 °C. Further, in data set [5], the “optimal pH” value was determined as 6.5.
